Measurements published in patent US20260250320A1, “LIPIDATED PEPTIDE INHIBITORS OF INTERLEUKIN-23 RECEPTOR” (Janssen Pharmaceutica NV, priority 2023, published 2026).
*1 amine or outer side, *2 acyl side, *3 side chain or, on linkers, in order; H or OH if unused. Where a SMILES comes first, the peptide text is derived from it. Bridges are numbered along the chain shown (N, C = ends). Side-chain parts run from the residue outwards. [ ]: non-standard residue; d: D form. The star is where a group is joined. X41 = C[N+](C)(CCCCC*)CCOCCOCCNC(=O)COCCOCCCC(=O)CC[C@H](CC(=O)CCCCCCCCCCCCCCCCC(=O)O)C(=O)O; Me3N+(CH2)2O(CH2)2O(CH2)2CO = C[N+](C)(C)CCOCCOCCC(=O)*; Trp(7-Me) = Cc1cccc2c(C[C@H](N)C(=O)O)c[nH]c12; C18 diacid = O=C(O)CCCCCCCCCCCCCCCCC(=O)*; γGlu = O=C(O)[C@H](CCC(=O)[*:2])N[*:1]; 2Nal = N[C@@H](Cc1ccc2ccccc2c1)C(=O)O; AEF = NCCOc1ccc(C[C@H](N)C(=O)O)cc1; X2 = C[N+](C)(C)C[C@@H](CC(=O)O)N*; 3Pal = N[C@@H](Cc1cccnc1)C(=O)O; Lys(Me) = CNCCCC[C@H](N)C(=O)O; Pen = CC(C)(S)[C@H](N)C(=O)O; Suc = O=C(CCC(=O)[*:2])[*:1]; Thp = NC1(C(=O)O)CCOCC1; AEEA = NCCOCCOCC(=O)O; Sar = CNCC(=O)O

Tests used:
[1] = tested on: IL-23-stimulated phosphorylated STAT3 in peripheral blood mononuclear cells (PBMCs); experiment: PBMC pSTAT3 Assay; format: cell-based; conditions: PBMCs from healthy donors; 30 min preincubation with peptide; IL-23 5 ng/mL for 30 min; phospho-STAT3 by MSD
Experimental: Cryopreserved peripheral blood mononuclear cells (PBMCs) from healthy donors were thawed and washed twice in ImmunoCult-XF T cell expansion medium (XF-TCEM) supplemented with CTL anti-aggregate wash. The cells were counted, resuspended at 2-6×10^5 cells per mL XF-TCEM supplemented with penicillin/streptomycin and 100 ng/mL […] (BioLegend, 579404), and cultured in tissue culture flasks coated with anti-CD3 (eBioscience, 16-0037-85 or BD Pharmingen, 555329) at 37° C. in 5% CO2. On day 4 of culture, PBMCs were collected, washed twice in RPMI-1640 supplemented with 0.1% BSA (RPMI-BSA), and incubated in RPMI-BSA in upright tissue culture flasks for ~4 hours at 37° C. in 5% CO2. Following this 'starvation,' a total of 6×10^4 cells in 30 μL RPMI-BSA was transferred into each well of a 384-well plate pre-spotted with peptide or DMSO. The cells were incubated for 30 minutes prior to the addition of […] at a final concentration of 5 ng/mL. The cells were stimulated with cytokine for 30 minutes at 37° C. in 5% CO2, transferred onto ice for 10 minutes, and lysed. Cell lysates were stored at -80° C. until phosphorylated STAT3 was measured using the phospho-STAT panel kit (Meso Scale Discovery, […]). Results are provided below. • A: IC50<0.5 nM; • B: 0.5 nM≤IC50<5 nM; • C: 5 nM≤IC50; • ND: Not determined

IL-23R = biological target: T1, IL-23R (Homo sapiens, UniProt Q5VWK5); experiment: IL23R Reporter Assay; format: cell-based; conditions: HEK293 cells containing IL-23R, IL-12Rβ1 and STAT-inducible firefly luciferase reporter; 10 ng/mL IL-23 (EC90); 5 h
T1 construct: HEK293 cells containing IL-23R, IL-12Rβ1 and a firefly luciferase reporter gene driven by a STAT-inducible promoter (Promega); host or cells: HEK293
T1 sequence (Q5VWK5 24-629): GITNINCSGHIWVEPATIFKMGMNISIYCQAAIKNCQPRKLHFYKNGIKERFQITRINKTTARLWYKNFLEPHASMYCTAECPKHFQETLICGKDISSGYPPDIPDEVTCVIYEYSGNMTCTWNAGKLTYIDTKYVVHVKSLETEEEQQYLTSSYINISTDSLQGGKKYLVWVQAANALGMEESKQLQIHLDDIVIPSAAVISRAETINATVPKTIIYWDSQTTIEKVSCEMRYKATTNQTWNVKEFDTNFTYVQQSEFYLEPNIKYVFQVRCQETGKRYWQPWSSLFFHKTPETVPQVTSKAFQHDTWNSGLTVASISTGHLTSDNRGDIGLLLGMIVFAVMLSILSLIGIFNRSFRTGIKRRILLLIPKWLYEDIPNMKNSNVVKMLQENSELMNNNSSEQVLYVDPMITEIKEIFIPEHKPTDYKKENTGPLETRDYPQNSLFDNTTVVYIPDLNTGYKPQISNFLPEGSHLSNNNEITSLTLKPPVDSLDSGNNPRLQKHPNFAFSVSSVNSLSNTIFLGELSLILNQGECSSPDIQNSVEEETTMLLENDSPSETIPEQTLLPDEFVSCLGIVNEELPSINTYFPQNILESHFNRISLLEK
How it was run: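 IC50 values were fitted with a 4-parameter Hill equation to luciferase signal, scaled between IL-23-only wells (0% inhibition) and 30 μM reference inhibitor (100%). The readout was a STAT-inducible reporter in IL-23R/IL-12Rβ1 HEK293 cells, stimulated with added 10 ng/mL IL-23 (EC90) for 5 h at 37° C and developed with BioGlo.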

SMILES	IC50 [1] [nM]	IC50 (IL-23R) [nM]
CC(=O)N(C)CCCC[C@@H]1NC(=O)[C@H](Cc2c[nH]c3c(C)cccc23)NC(=O)[C@H]([C@@H](C)O)NC(=O)[C@H](CC(=O)N(C)C)NC(=O)[C@@H](NC(=O)CCOCCOCC[N+](C)(C)C)C(C)(C)SSC(C)(C)[C@@H](C(=O)N[C@@H](Cc2ccc(OCCCCC[N+](C)(C)CCOCCOCCNC(=O)COCCOCCCC(=O)CC[C@H](CC(=O)CCCCCCCCCCCCCCCCC(=O)O)C(=O)O)cc2)C(=O)N[C@@H](Cc2ccc3ccccc3c2)C(=O)NC2(C(=O)N[C@@H](CCCCN(C)C(C)=O)C(=O)N[C@@H](CC(N)=O)C(=O)N[C@@H](Cc3cccnc3)C(=O)N(C)CC(=O)N(C)C)CCOCC2)NC1=O [compound 144, cPEG3aCO-Pen(3)-N(N(Me)2)-T-7MeW-K(NMeAc)-Pen(3)-TMAPF(PEG2PEG2gEC18OH)-2Nal-THP-K(NMeAc)-N-3Pya-Sar-CON(Me)2] ({Me3N+(CH2)2O(CH2)2O(CH2)2CO}-[Pen]D(NMe2)T[Trp(7-Me)][Lys(Me)](Ac)[Pen]Y(X41)[2Nal][Thp][Lys(Me)](Ac)N[3Pal][Sar]-NMe2; disulfide 1-6)	0.5 to 5	< 50
CC(=O)N[C@H](CCCNC(=N)N)C(=O)N[C@@H]1C(=O)N[C@@H](CC(N)=O)C(=O)N[C@@H]([C@@H](C)O)C(=O)N[C@@H](Cc2c[nH]c3c(C)cccc23)C(=O)N[C@@H](CCCCNC(=O)COCCOCCNC(=O)COCCOCCNC(=O)CC[C@H](NC(=O)CCCCCCCCCCCCCCCCC(=O)O)C(=O)O)C(=O)N[C@H](C(=O)N[C@@H](Cc2ccc(OCCNC(=O)CCC(=O)N[C@H](CC(=O)O)C[N+](C)(C)C)cc2)C(=O)N[C@@H](Cc2ccc3ccccc3c2)C(=O)NC2(C(=O)N[C@@H](CCC(=O)O)C(=O)N[C@@H](CC(N)=O)C(=O)N[C@@H](Cc3cccnc3)C(=O)N(C)CC(N)=O)CCOCC2)C(C)(C)SSC1(C)C [compound 36, MeCO-r-Pen(3)-N-T-7MeW-K(PEG2PEG2gEC18OH)-Pen(3)-AEF(d)-2Nal-THP-E-N-3Pya-Sar-CONH2] (Ac-[dR][Pen]NT[Trp(7-Me)]K([AEEA-AEEA-γGlu-C18 diacid])[Pen][AEF]([Suc-X2])[2Nal][Thp]EN[3Pal][Sar]-NH2; disulfide 2-7)	< 0.5	50 to 500
CC(=O)NCCCC[C@@H]1NC(=O)[C@H](Cc2c[nH]c3c(C)cccc23)NC(=O)[C@H]([C@@H](C)O)NC(=O)[C@H](CC(N)=O)NC(=O)[C@@H](NC(C)=O)C(C)(C)SSC(C)(C)[C@@H](C(=O)N[C@@H](Cc2ccc(OCCN)cc2)C(=O)N[C@@H](Cc2ccc3ccccc3c2)C(=O)NC2(C(=O)N[C@@H](CCCCNC(C)=O)C(=O)N[C@@H](CC(N)=O)C(=O)N[C@@H](Cc3cccnc3)C(=O)N(C)CC(=O)N[C@@H](CCCCNC(=O)CCOCCOCCOCCOCCOCCOCCOCCOCCOCCOCCOCCOCCNC(=O)CC[C@H](NC(=O)CCCCCCCCCCCCCCCCC(=O)O)C(=O)O)C(N)=O)CCOCC2)NC1=O [compound 102, MeCO-Pen(3)-N-T-7MeW-K(Ac)-Pen(3)-AEF-2Nal-THP-K(Ac)-N-3Pya-Sar-K(PEG12gEC18OH)-CONH2]	< 0.5	< 50
